Data published in patent US4536335A, “Carbapenem antibiotics” (Bristol-Myers Company, priority 1983, dated 1985).
Values after ≈ are worked out from the molar mass of the structure shown. Where two headings read alike, the source gives them in different places.

Assays:
Experiment in all cases: In vitro MIC, tube dilution
Type in all cases: cell-based
[1] = test system: S. aureus A-9537; conditions: Staphylococcus aureus, overnight incubation at 37° C., additional data table
[2] = test system: E. cloacae A-9656; conditions: Enterobacter cloacae, A9656, tube dilution, Nutrient Broth, overnight incubation at 37° C.; additional data table
[3] = test system: K. pneumoniae A20468; conditions: Klebsiella pneumoniae, A20468, tube dilution, Nutrient Broth, overnight incubation at 37° C.; additional data table
[4] = test system: S. marcescens A20019; conditions: Serratia marcescens, A20019, tube dilution, Nutrient Broth, overnight incubation at 37° C.; additional data table
[5] = test system: P. morganii A15153; conditions: Morganella morganii, A15153, tube dilution, Nutrient Broth, overnight incubation at 37° C.; additional data table; read-out: MIC M. morganii A15153
[6] = test system: P. aeruginosa A-9843A; conditions: Pseudomonas aeruginosa, A9843A, Nutrient Broth, overnight incubation at 37° C., additional data table
[7] = test system: S. aureus A-9606 (Pen-res.); conditions: Staphylococcus aureus, Nutrient Broth, overnight incubation at 37° C., additional data table, read-out: MIC S. aureus (Pen-res.) A-9606
[8] = test system: E. coli A20341-1; conditions: Escherichia coli, A203411, tube dilution, Nutrient Broth, overnight incubation at 37° C.; additional data table

`C[C@@H](O)[C@H]1C(=O)N2C(C(=O)[O-])=C(SCC[N+]3(C)CCN(C)CC3)C[C@H]12` [Example 4, (5R,6S)3-[2-(1,4-dimethyl-1-piperazinium)-ethylthio]-6-[1-(R)-hydroxyethyl]-7-oxo-1-azabicyclo-[3.2.0]hept-2-ene-2-carboxylate] was tested, and the MIC ([1]; A9537, 50% serum, tube dilution, read-out: MIC S. aureus-50% serum A-9537) was 0.06 µg/mL (≈ 0.162 µM), the MIC ([1]; A9537, tube dilution, Nutrient Broth, read-out: MIC S. aureus A-9537) was 0.03 µg/mL (≈ 0.0812 µM) and the MIC [2] was 2 µg/mL (≈ 5.41 µM). For the same compound, the MIC [3] was 0.5 µg/mL (≈ 1.35 µM), the MIC [4] was 0.25 µg/mL (≈ 0.677 µM) and the MIC [5] was 1 µg/mL (≈ 2.71 µM). The MIC [6] was 16 µg/mL (≈ 43.3 µM), the MIC [7] was 0.06 µg/mL (≈ 0.162 µM) and the MIC [8] was 0.13 µg/mL (≈ 0.352 µM).
